Measurements published in patent US20250120989A1, “BRIDGED TRICYCLIC CARBAMOYLPYRIDONE COMPOUNDS AND USES THEREOF” (priority 2023, published 2025).
Converted amounts (≈) assume the structure as drawn.

Assays:
in vitro = settings: human, uninfected MT-4 cells
physchem = settings: FaSSIF, 23 °C, thermodynamic from solid
HIV-1 (IIIB) = assay: microbe, parasite or virus in culture; type: cell-based; settings: Human immunodeficiency virus 1, MT4, 120 h; HIV-1 (IIIB) replication in MT-4 cells, 5 days, Cell Titer Glo; read-out: MT4 EC50

| Structure (SMILES) | CC50 at 5 days (in vitro) [µM] | solubility thermodynamic at 24 h (physchem) [µg/mL] | EC50 (HIV-1 (IIIB)) [µM] |
| --- | --- | --- | --- |
| CC1=NO[C@@]2(CC[C@H](C)N3C[C@H]2n2cc(C(=O)NCc4ccc(F)cc4F)c(=O)c(OCOC(=O)OC[C@@H](C)OP(=O)(O)O)c2C3=O)C1 [Compound 22, (((3′S,5S,7′R)-10′-((2,4-difluorobenzyl)carbamoyl)-3,3′-dimethyl-1′,11′-dioxo-1′,4′,5′,11′-tetrahydro-3′H,4H,7′H-spiro[isoxazole-5,6′-[2,7]methanopyrido[1,2-a][1,4]diazonin]-12′-yl)oxy)methyl ((R)-2-(phosphonooxy)propyl) carbonate] | 9.78 | 4180 (≈ 5.99 mM) | 0.00193 |
| CC1=NO[C@@]2(CC[C@H](C)N3C[C@H]2n2cc(C(=O)NCc4ccc(F)cc4F)c(=O)c(OCOC(=O)OCC(C)(C)COP(=O)(O)O)c2C3=O)C1 [Compound 12, (((3′S,5S,7′R)-10′-((2,4-difluorobenzyl)carbamoyl)-3,3′-dimethyl-1′,11′-dioxo-1′,4′,5′,11′-tetrahydro-3′H,4H,7′H-spiro[isoxazole-5,6′-[2,7]methanopyrido[1,2-a][1,4]diazonin]-12′-yl)oxy)methyl (2,2-dimethyl-3-(phosphonooxy)propyl) carbonate] | 14 | 5280 (≈ 7.27 mM) | 0.00201 |
| CC1=NO[C@@]2(CC[C@H](C)N3C[C@H]2n2cc(C(=O)NCc4ccc(F)cc4F)c(=O)c(OCOC(=O)O[C@H](C)[C@@H](C)OP(=O)(O)O)c2C3=O)C1 [Compound 27, (((3′S,5S,7′R)-10′-((2,4-difluorobenzyl)carbamoyl)-3,3′-dimethyl-1′,11′-dioxo-1′,4′,5′,11′-tetrahydro-3′H,4H,7′H-spiro[isoxazole-5,6′-[2,7]methanopyrido[1,2-a][1,4]diazonin]-12′-yl)oxy)methyl ((2R,3R)-3-(phosphonooxy)butan-2-yl) carbonate] | 18.7 | 4660 (≈ 6.55 mM) | 0.00247 |
| CC1=NO[C@@]2(CC[C@H](C)N3C[C@H]2n2cc(C(=O)NCc4ccc(F)cc4F)c(=O)c(OCOC(=O)OCC4(COP(=O)(O)O)CC4)c2C3=O)C1 [Compound 33, (((3′S,5S,7′R)-10′-((2,4-difluorobenzyl)carbamoyl)-3,3′-dimethyl-1′,11′-dioxo-1′,4′,5′,11′-tetrahydro-3′H,4H,7′H-spiro[isoxazole-5,6′-[2,7]methanopyrido[1,2-a][1,4]diazonin]-12′-yl)oxy)methyl ((1-((phosphonooxy)methyl)cyclopropyl)methyl) carbonate] | 12.3 | 5680 (≈ 7.84 mM) | 0.00217 |
| COC1=NO[C@@]2(CC[C@H](C)N3C[C@H]2n2cc(C(=O)NCc4ccc(F)cc4F)c(=O)c(OC(=O)OC[C@H](C)OP(=O)(O)O)c2C3=O)C1 [Compound 38, (3′S,5S,7′R)-10′-((2,4-difluorobenzyl)carbamoyl)-3-methoxy-3′-methyl-1′,11′-dioxo-1′,4′,5′,11′-tetrahydro-3′H,4H,7′H-spiro[isoxazole-5,6′-[2,7]methanopyrido[1,2-a][1,4]diazonin]-12′-yl ((S)-2-(phosphonooxy)propyl) carbonate] | 17.6 | 2460 (≈ 3.59 mM) | 0.00145 |
| COC1=NO[C@@]2(CC[C@H](C)N3C[C@H]2n2cc(C(=O)NCc4ccc(F)cc4F)c(=O)c(OCOC(=O)O[C@@H](C)COP(=O)(O)O)c2C3=O)C1 [Compound 24, (((3′S,5S,7′R)-10′-((2,4-difluorobenzyl)carbamoyl)-3-methoxy-3′-methyl-1′,11′-dioxo-1′,4′,5′,11′-tetrahydro-3′H,4H,7′H-spiro[isoxazole-5,6′-[2,7]methanopyrido[1,2-a][1,4]diazonin]-12′-yl)oxy)methyl ((S)-1-(phosphonooxy)propan-2-yl) carbonate] | 17.1 | 5000 (≈ 7 mM) | 0.00229 |
| CC1=NO[C@@]2(CC[C@H](C)N3C[C@H]2n2cc(C(=O)NCc4ccc(F)cc4F)c(=O)c(OCOC(=O)OC[C@H](C)OP(=O)(O)O)c2C3=O)C1 [Compound 17, (((3′S,5S,7′R)-10′-((2,4-difluorobenzyl)carbamoyl)-3,3′-dimethyl-1′,11′-dioxo-1′,4′,5′,11′-tetrahydro-3′H,4H,7′H-spiro[isoxazole-5,6′-[2,7]methanopyrido[1,2-a][1,4]diazonin]-12′-yl)oxy)methyl ((S)-2-(phosphonooxy)propyl) carbonate] | 13.7 | 4590 (≈ 6.57 mM) | 0.00205 |
| CC1=NO[C@@]2(CC[C@H](C)N3C[C@H]2n2cc(C(=O)NCc4ccc(F)cc4F)c(=O)c(OC(=O)OCC(C)(C)COP(=O)(O)O)c2C3=O)C1 [Compound 13, (3′S,5S,7′R)-10′-((2,4-difluorobenzyl)carbamoyl)-3,3′-dimethyl-1′,11′-dioxo-1′,4′,5′,11′-tetrahydro-3′H,4H,7′H-spiro[isoxazole-5,6′-[2,7]methanopyrido[1,2-a][1,4]diazonin]-12′-yl (2,2-dimethyl-3-(phosphonooxy)propyl) carbonate] | 14 | 4380 (≈ 6.29 mM) | 0.00198 |
| COC1=NO[C@@]2(CC[C@H](C)N3C[C@H]2n2cc(C(=O)NCc4ccc(F)cc4F)c(=O)c(OCOC(=O)O[C@H](C)[C@@H](C)OP(=O)(O)O)c2C3=O)C1 [Compound 61, (((3′S,5S,7′R)-10′-((2,4-difluorobenzyl)carbamoyl)-3-methoxy-3′-methyl-1′,11′-dioxo-1′,4′,5′,11′-tetrahydro-3′H,4H,7′H-spiro[isoxazole-5,6′-[2,7]methanopyrido[1,2-a][1,4]diazonin]-12′-yl)oxy)methyl ((2R,3R)-3-(phosphonooxy)butan-2-yl) carbonate] | 20.9 | 4800 (≈ 6.58 mM) | 0.00235 |
| COC1=NO[C@@]2(CC[C@H](C)N3C[C@H]2n2cc(C(=O)NCc4ccc(F)cc4F)c(=O)c(OCOC(=O)OC[C@H](C)OP(=O)(O)O)c2C3=O)C1 [Compound 23, (((3′S,5S,7′R)-10′-((2,4-difluorobenzyl)carbamoyl)-3-methoxy-3′-methyl-1′,11′-dioxo-1′,4′,5′,11′-tetrahydro-3′H,4H,7′H-spiro[isoxazole-5,6′-[2,7]methanopyrido[1,2-a][1,4]diazonin]-12′-yl)oxy)methyl ((S)-2-(phosphonooxy)propyl) carbonate] | 14.8 | 4400 (≈ 6.16 mM) | 0.00233 |
| CC1=NO[C@@]2(CC[C@H](C)N3C[C@H]2n2cc(C(=O)NCc4ccc(F)cc4F)c(=O)c(OC(=O)OC[C@H](C)OP(=O)(O)O)c2C3=O)C1 [Compound 39, (3′S,5S,7′R)-10′-((2,4-difluorobenzyl)carbamoyl)-3,3′-dimethyl-1′,11′-dioxo-1′,4′,5′,11′-tetrahydro-3′H,4H,7′H-spiro[isoxazole-5,6′-[2,7]methanopyrido[1,2-a][1,4]diazonin]-12′-yl ((S)-2-(phosphonooxy)propyl) carbonate] | 16.1 | 2660 (≈ 3.97 mM) | 0.0016 |
| COC1=NO[C@@]2(CC[C@H](C)N3C[C@H]2n2cc(C(=O)NCc4ccc(F)cc4F)c(=O)c(OCOC(=O)OCCN(CC(=O)O)C(=O)OCOP(=O)(O)O)c2C3=O)C1 [Compound 8, N-(2-((((((3′S,5S,7′R)-10′-((2,4-difluorobenzyl)carbamoyl)-3-methoxy-3′-methyl-1′,11′-dioxo-1′,4′,5′,11′-tetrahydro-3′H,4H,7′H-spiro[isoxazole-5,6′-[2,7]methanopyrido[1,2-a][1,4]diazonin]-12′-yl)oxy)methoxy)carbonyl)oxy)ethyl)-N-(((phosphonooxy)methoxy)carbonyl)glycine] | 17.8 | 3020 (≈ 3.63 mM) | 0.00204 |
| CC[C@@H](COC(=O)OCOc1c2n(cc(C(=O)NCc3ccc(F)cc3F)c1=O)[C@@H]1CN(C2=O)[C@@H](C)CC[C@]12CC(C)=NO2)OP(=O)(O)O [Compound 66, (((3′S,5S,7′R)-10′-((2,4-difluorobenzyl)carbamoyl)-3,3′-dimethyl-1′,11′-dioxo-1′,4′,5′,11′-tetrahydro-3′H,4H,7′H-spiro[isoxazole-5,6′-[2,7]methanopyrido[1,2-a][1,4]diazonin]-12′-yl)oxy)methyl ((S)-2-(phosphonooxy)butyl) carbonate] | 12.8 | 4270 (≈ 5.99 mM) | 0.00207 |
| CC[C@H](COC(=O)OCOc1c2n(cc(C(=O)NCc3ccc(F)cc3F)c1=O)[C@@H]1CN(C2=O)[C@@H](C)CC[C@]12CC(OC)=NO2)OP(=O)(O)O [Compound 65, (((3′S,5S,7′R)-10′-((2,4-difluorobenzyl)carbamoyl)-3-methoxy-3′-methyl-1′,11′-dioxo-1′,4′,5′,11′-tetrahydro-3′H,4H,7′H-spiro[isoxazole-5,6′-[2,7]methanopyrido[1,2-a][1,4]diazonin]-12′-yl)oxy)methyl ((R)-2-(phosphonooxy)butyl) carbonate] | 14.1 | 3880 (≈ 5.33 mM) | 0.00102 |
| CC1=NO[C@@]2(CC[C@H](C)N3C[C@H]2n2cc(C(=O)NCc4ccc(F)cc4F)c(=O)c(OCOC(=O)O[C@H](C)C[C@@H](C)OP(=O)(O)O)c2C3=O)C1 [Compound 31, (((3′S,5S,7′R)-10′-((2,4-difluorobenzyl)carbamoyl)-3,3′-dimethyl-1′,11′-dioxo-1′,4′,5′,11′-tetrahydro-3′H,4H,7′H-spiro[isoxazole-5,6′-[2,7]methanopyrido[1,2-a][1,4]diazonin]-12′-yl)oxy)methyl ((2R,4R)-4-(phosphonooxy)pentan-2-yl) carbonate] | 12.9 | 4620 (≈ 6.37 mM) | 0.0035 |
